Tests used:
Format in all cases: binding
Settings in all cases: Compound Concentration 10 µM
panel of 442 kinases [1] = target: T1, panel of 442 kinases (Homo sapiens, UniProt Q13043)
T1 construct: purchased KINOMEscan
T1 sequence (Q13043 1-487): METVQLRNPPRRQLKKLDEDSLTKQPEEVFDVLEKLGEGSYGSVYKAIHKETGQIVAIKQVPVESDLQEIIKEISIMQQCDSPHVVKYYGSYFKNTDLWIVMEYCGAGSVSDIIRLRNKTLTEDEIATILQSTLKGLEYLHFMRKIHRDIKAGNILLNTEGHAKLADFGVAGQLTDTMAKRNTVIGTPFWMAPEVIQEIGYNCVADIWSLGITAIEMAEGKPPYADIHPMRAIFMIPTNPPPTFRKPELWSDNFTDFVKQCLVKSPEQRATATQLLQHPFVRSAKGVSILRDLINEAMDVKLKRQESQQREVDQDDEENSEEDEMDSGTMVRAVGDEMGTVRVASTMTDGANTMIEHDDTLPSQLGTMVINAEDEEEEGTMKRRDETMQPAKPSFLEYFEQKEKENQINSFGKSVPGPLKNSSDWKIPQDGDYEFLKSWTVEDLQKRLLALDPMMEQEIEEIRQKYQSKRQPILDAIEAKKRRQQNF
Description: (§1) We assessed the selectivity of members of this scaffold using the KINOMEscan methodology across a near comprehensive panel of 442 kinases [[18,27]].

panel of 442 kinases [2] = target: T2, panel of 442 kinases (Homo sapiens, UniProt Q9P286)
T2 construct: purchased KINOMEscan
T2 sequence (Q9P286 whole entry): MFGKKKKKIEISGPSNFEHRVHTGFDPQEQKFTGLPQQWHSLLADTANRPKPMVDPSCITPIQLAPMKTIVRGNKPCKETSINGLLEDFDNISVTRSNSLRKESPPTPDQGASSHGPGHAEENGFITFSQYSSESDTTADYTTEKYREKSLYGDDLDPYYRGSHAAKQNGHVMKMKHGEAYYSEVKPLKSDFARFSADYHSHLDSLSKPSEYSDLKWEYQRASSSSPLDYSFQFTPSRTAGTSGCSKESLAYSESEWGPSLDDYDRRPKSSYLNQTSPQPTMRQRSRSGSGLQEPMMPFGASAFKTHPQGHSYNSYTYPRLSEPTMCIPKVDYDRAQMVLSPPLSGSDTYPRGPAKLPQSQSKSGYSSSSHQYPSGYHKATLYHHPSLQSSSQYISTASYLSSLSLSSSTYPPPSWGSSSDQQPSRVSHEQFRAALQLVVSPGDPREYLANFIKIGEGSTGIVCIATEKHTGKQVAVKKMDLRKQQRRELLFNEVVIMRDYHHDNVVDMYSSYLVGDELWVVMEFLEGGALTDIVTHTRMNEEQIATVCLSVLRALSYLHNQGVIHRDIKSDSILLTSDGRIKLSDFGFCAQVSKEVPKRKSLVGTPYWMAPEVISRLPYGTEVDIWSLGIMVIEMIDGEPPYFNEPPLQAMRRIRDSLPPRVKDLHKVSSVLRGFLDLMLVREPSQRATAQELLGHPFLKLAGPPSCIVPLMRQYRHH
Description: as §1

panel of 442 kinases [3] = target: T3, panel of 442 kinases (Homo sapiens, UniProt Q9Y6E0)
T3 construct: purchased KINOMEscan
T3 sequence (Q9Y6E0 whole entry): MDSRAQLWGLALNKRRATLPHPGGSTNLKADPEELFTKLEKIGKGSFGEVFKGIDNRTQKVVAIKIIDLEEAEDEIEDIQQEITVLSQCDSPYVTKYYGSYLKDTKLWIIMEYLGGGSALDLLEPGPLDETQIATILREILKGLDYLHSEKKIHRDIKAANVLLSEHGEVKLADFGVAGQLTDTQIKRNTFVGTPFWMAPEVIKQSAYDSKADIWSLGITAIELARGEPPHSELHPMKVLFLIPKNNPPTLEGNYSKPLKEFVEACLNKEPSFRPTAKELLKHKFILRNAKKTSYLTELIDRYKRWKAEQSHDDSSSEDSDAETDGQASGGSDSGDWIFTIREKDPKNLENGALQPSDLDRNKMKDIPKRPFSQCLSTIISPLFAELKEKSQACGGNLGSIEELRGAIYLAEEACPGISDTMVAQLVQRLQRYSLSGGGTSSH
Description: as §1

COc1cc(C(=O)N2CCC(N3CCN(C)CC3)CC2)ccc1Nc1ncc2c(n1)N(C)c1ccccc1C(=O)N2C [15 (LRRK2-IN-1)]
KINOMEscan: MST1 (panel of 442 kinases [1]): 100
KINOMEscan: PAK7 (panel of 442 kinases [2]): 96
KINOMEscan: MST3 (panel of 442 kinases [3]): 87

CCOc1cc(C(=O)N2CCC(N3CCN(C)CC3)CC2)ccc1Nc1ncc2c(n1)N(C1CCCC1)c1ccccc1C(=O)N2C [Compound 26]
KINOMEscan: MST1 (panel of 442 kinases [1]): 100
KINOMEscan: PAK7 (panel of 442 kinases [2]): 100
KINOMEscan: MST3 (panel of 442 kinases [3]): 100

COc1cc(C(=O)N2CCC(N3CCN(C)CC3)CC2)ccc1Nc1ncc2c(n1)N1CCc3cccc(c31)C(=O)N2C [Compound 24]
KINOMEscan: MST1 (panel of 442 kinases [1]): 95
KINOMEscan: MST3 (panel of 442 kinases [3]): 73

COc1cc(C(=O)N2CCC(N3CCN(C)CC3)CC2)ccc1Nc1ncc2c(n1)N(C1CCCC1)c1ccccc1C(=O)N2C [Compound 25, 11-cyclopentyl-2-((2-methoxy-4-(4-(4-methylpiperazin-1-yl)piperidine-1-carbonyl)phenyl)amino)-5-methyl-5H-benzo[e]pyrimido[5,4-b][1,4]diazepin-6(11H)-one]
KINOMEscan: MST1 (panel of 442 kinases [1]): 100
KINOMEscan: PAK7 (panel of 442 kinases [2]): 100
KINOMEscan: MST3 (panel of 442 kinases [3]): 88

From publication PMC3914206
